Measurements taken from US20170267667A1, “[…] AS NON-NUCLEOSIDE REVERSE TRANSCRIPTASE INHIBITORS FOR ANTI-HIV-1 CHEMOTHERAPY” (Purdue Research Foundation, priority 2016, published 2017).

Experiments:
HIV-1RF = assay: XTT cytoprotection assay, HIV-1RF infection in CEM-SS cells; format: cell-based; conditions: for SI (CC50/EC50) CEM-SS cells: CC50/EC50 ratio, HIV-1RF in CEM-SS cells; for EC50: Human immunodeficiency virus 1, inhibition of cytopathicity of HIV-1RF in CEM-SS cells
Description: (§1) In Vitro Antiviral Assay. Evaluation of the antiviral activity of compounds against HIV- 1RF infection in CEM-SS cells was performed using the XTT cytoprotection assay, as previously described (Buckheit, R. W. Jr., et al., Antiviral Res. 1995, 26, 117-132). Evaluation of the antiviral activity of compounds against HIV-1IIIB and HIV-2ROD in MT-4 cells was performed using the MTT assay, as previously described (Rice, W. G. and Bader, J. P., Adv. Pharmacol. (San Diego) 1995, 33, 389-438).

[1] = Cytotoxicity for mock-infected MT-4 cells; format: cell-based; conditions: human
Description: as §1
(§2) Biological Results. The antiviral activities of the ADAMs were evaluated by determining their ability to inhibit the enzymatic activity of HIV-1 RT in vitro (IC50) and protect HIV-infected cells from the cytopathic effects (EC50) of two viral strains (HIV-1RF and HIV-1IIIB). The cytotoxicities (CC50) of the ADAMs were determined on CEM-SS cells and MT-4 cells.

[2] = target: HIV-1 reverse transcriptase (Human immunodeficiency virus type 1 group M subtype B, UniProt P04585); assay: RT inhibition assay, incorporation of [32P]GTP into poly(rC)/oligo(dG) template primer; format: biochemical; conditions: poly(rC):oligo(dG) as the template primer; mean of at least two experiments; read-out: IC50 inhibitory activity versus HIV-1 reverse transcriptase
Description: RT Inhibition Assay. Inhibition of purified recombinant reverse transcriptase was measured by the incorporation of [^32P]GTP into poly(rC)/oligo(dG) homopolymer template primers, as previously described (Cushman, M., et al., J. Med. Chem. 1996, 39, 3217-3227).

[3] = Cytotoxicity for mock-infected CEM-SS cells; format: cell-based; conditions: human
Description: as §1, §2

HIV-1IIIB = assay: MTT assay, HIV-1IIIB in MT-4 cells; format: cell-based; conditions: for SI (CC50/EC50) MT-4 cells: CC50/EC50 ratio, HIV-1IIIB in MT-4 cells; for EC50: Human immunodeficiency virus 1, MT4, inhibition of cytopathicity of HIV-1IIIB in MT-4 cells
Description: as §1

Row | Structure (SMILES) | SI (CC50/EC50) CEM-SS cells (HIV-1RF) | EC50 (HIV-1RF) | CC50 [1] | IC50 [2] | CC50 [3] | SI (CC50/EC50) MT-4 cells (HIV-1IIIB) | EC50 (HIV-1IIIB)
1 | CON=C(F)c1cc(/C(=C\CCCc2nnc(C)o2)c2cc(C)c3oc(=O)n(C)c3c2)cc(C)c1OC [ADAM 5, 5-[(1E)-1-(3,7-Dimethyl-2-oxo-2,3-dihydro-1,3-benzoxazol-5-yl)-5-(5-methyl-1,3,4-oxadiazol-2-yl)pent-1-en-1-yl]-N,2-dimethoxy-3-methylbenzenecarboximidoyl Fluoride] | 13 | 0.5 µM | 26.5 µM | 3.4 µM | 6.5 µM | 76 | 0.35 µM
2 | CON=C(F)c1cc(/C(=C\CCCN2CCOC2=O)c2cc(C)c3oc(=O)n(C)c3c2)cc(C)c1OC [ADAM 6, 5-[(1E)-1-(3,7-Dimethyl-2-oxo-2,3-dihydro-1,3-benzoxazol-5-yl)-5-(2-oxo-1,3-oxazolidin-3-yl)pent-1-en-1-yl]-N,2-dimethoxy-3-methylbenzenecarboximidoyl Fluoride] | – | > 100 µM | 7.53 µM | 2.37 µM | 5.04 µM | – | > 7.53 µM
3 | CON=C(F)c1cc(/C(=C\CCCc2nnc(C)o2)c2cc(C)c3onc(OC)c3c2)cc(C)c1OC [ADAM 7, N,2-Dimethoxy-5-[(1Z)-1-(3-methoxy-7-methyl-1,2-benzoxazol-5-yl)-5-(5-methyl-1,3,4-oxadiazol-2-yl)pent-1-en-1-yl]-3-methylbenzenecarboximidoyl Fluoride] | 7 | 1.9 µM | 15.8 µM | 1.4 µM | 13.9 µM | 6 | 2.86 µM
4 | CON=C(F)c1cc(/C(=C\CCCc2nc(C)no2)c2cc(C)c3onc(OC)c3c2)cc(C)c1OC [ADAM 8, N,2-Dimethoxy-5-[(1Z)-1-(3-methoxy-7-methyl-1,2-benzoxazol-5-yl)-5-(3-methyl-1,2,4-oxadiazol-5-yl)pent-1-en-1-yl]-3-methylbenzenecarboximidoyl Fluoride] | 3 | 2.04 µM | 9.66 µM | 1.85 µM | 5.39 µM | 2 | 4.07 µM
5 | CON=C(F)c1cc(/C(=C\CCCN2CCOC2=O)c2cc(C)c3onc(OC)c3c2)cc(C)c1OC [ADAM 9, N,2-Dimethoxy-5-[(1Z)-1-(3-methoxy-7-methyl-1,2-benzoxazol-5-yl)-5-(2-oxo-1,3-oxazolidin-3-yl)pent-1-en-1-yl]-3-methylbenzenecarboximidoyl Fluoride] | – | > 100 µM | 26.1 µM | 46.7 µM | 17.8 µM | – | > 26.1 µM
6 | CON=C(F)c1cc(/C(=C\CCCc2nnc(C)o2)c2cccc(C#N)c2)cc(C)c1OC [ADAM 10, 5-[(1Z)-1-(3-Cyanophenyl)-5-(5-methyl-1,3,4-oxadiazol-2-yl)pent-1-en-1-yl]-N,2-dimethoxy-3-methylbenzenecarboximidoyl Fluoride] | – | > 100 µM | 1.07 µM | 37.1 µM | 1.8 µM | – | > 1.09 µM
7 | CON=C(F)c1cc(/C(=C\CCCc2nc(C)no2)c2cccc(C#N)c2)cc(C)c1OC [ADAM 11, 5-[(1Z)-1-(3-Cyanophenyl)-5-(3-methyl-1,2,4-oxadiazol-5-yl)pent-1-en-1-yl]-N,2-dimethoxy-3-methylbenzenecarboximidoyl Fluoride] | – | > 100 µM | 4.04 µM | 5.4 µM | 3.5 µM | – | > 4.04 µM
8 | CON=C(F)c1cc(/C(=C\CCCN2CCOC2=O)c2cccc(C#N)c2)cc(C)c1OC [ADAM 12, 5-[(1Z)-1-(3-Cyanophenyl)-5-(2-oxo-1,3-oxazolidin-3-yl)pent-1-en-1-yl]-N,2-dimethoxy-3-methylbenzenecarboximidoyl Fluoride] | – | > 100 µM | 1.66 µM | > 100 µM | 1.66 µM | – | > 1.66 µM
9 | CON=C(F)c1cc(/C(=C\CCCc2nnc(C)o2)c2ccc(C#N)cc2)cc(C)c1OC [ADAM 13, 5-[(1Z)-1-(4-Cyanophenyl)-5-(5-methyl-1,3,4-oxadiazol-2-yl)pent-1-en-1-yl]-N,2-dimethoxy-3-methylbenzenecarboximidoyl Fluoride] | – | > 100 µM | 11.4 µM | 44.4 µM | 6.7 µM | ≦1 | ≥ 9 µM
10 | CON=C(F)c1cc(/C(=C\CCCc2nc(C)no2)c2ccc(C#N)cc2)cc(C)c1OC [ADAM 14, 5-[(1Z)-1-(4-Cyanophenyl)-5-(3-methyl-1,2,4-oxadiazol-5-yl)pent-1-en-1-yl]-N,2-dimethoxy-3-methylbenzenecarboximidoyl Fluoride] | 7 | 2.03 µM | 20.4 µM | 0.91 µM | 13.4 µM | 4 | 5.55 µM
11 | CON=C(F)c1cc(/C(=C\CCCN2CCOC2=O)c2ccc(C#N)cc2)cc(C)c1OC [ADAM 15, 5-[(1Z)-1-(4-Cyanophenyl)-5-(2-oxo-1,3-oxazolidin-3-yl)pent-1-en-1-yl]-N,2-dimethoxy-3-methylbenzenecarboximidoyl Fluoride] | – | > 100 µM | 21.1 µM | > 100 µM | 6.7 µM | – | > 21.1 µM
12 | CON=C(Cl)c1cc(/C(=C\CCCc2nnc(C)o2)c2cc(C)c3oc(=O)n(C)c3c2)cc(C)c1OC [ADAM 16, 5-[(1E)-1-(3,7-Dimethyl-2-oxo-2,3-dihydro-1,3-benzoxazol-5-yl)-5-(5-methyl-1,3,4-oxadiazol-2-yl)pent-1-en-1-yl]-N,2-dimethoxy-3-methylbenzenecarboximidoyl Chloride] | 4 | 1.1 µM | 19.9 µM | 8.2 µM | 4.7 µM | 27 | 0.74 µM
13 | CON=C(Cl)c1cc(/C(=C\CCCc2nc(C)no2)c2cc(C)c3oc(=O)n(C)c3c2)cc(C)c1OC [ADAM 17, 5-[(1E)-1-(3,7-Dimethyl-2-oxo-2,3-dihydro-1,3-benzoxazol-5-yl)-5-(3-methyl-1,2,4-oxadiazol-5-yl)pent-1-en-1-yl]-N,2-dimethoxy-3-methylbenzenecarboximidoyl Chloride] | 5 | 0.51 µM | 29.4 µM | 4.19 µM | 2.37 µM | 59 | 0.5 µM
14 | CON=C(Cl)c1cc(/C(=C\CCCN2CCOC2=O)c2cc(C)c3oc(=O)n(C)c3c2)cc(C)c1OC [ADAM 18, 5-[(1E)-1-(3,7-Dimethyl-2-oxo-2,3-dihydro-1,3-benzoxazol-5-yl)-5-(2-oxo-1,3-oxazolidin-3-yl)pent-1-en-1-yl]-N,2-dimethoxy-3-methylbenzenecarboximidoyl Chloride] | – | > 100 µM | 5.19 µM | 62.9 µM | 5.99 µM | – | > 5.19 µM
15 | CON=C(Cl)c1cc(/C(=C\CCCc2nnc(C)o2)c2cc(C)c3onc(OC)c3c2)cc(C)c1OC [ADAM 19, N,2-Dimethoxy-5-[(1Z)-1-(3-methoxy-7-methyl-1,2-benzoxazol-5-yl)-5-(5-methyl-1,3,4-oxadiazol-2-yl)pent-1-en-1-yl]-3-methylbenzenecarboximidoyl Chloride] | 2 | 5.2 µM | 17.5 µM | 33.8 µM | 9.7 µM | ≦2 | ≥ 7.03 µM
16 | CON=C(Cl)c1cc(/C(=C\CCCc2nc(C)no2)c2cc(C)c3onc(OC)c3c2)cc(C)c1OC [ADAM 20, N,2-Dimethoxy-5-[(1Z)-1-(3-methoxy-7-methyl-1,2-benzoxazol-5-yl)-5-(3-methyl-1,2,4-oxadiazol-5-yl)pent-1-en-1-yl]-3-methylbenzenecarboximidoyl Chloride] | 7 | 1.7 µM | 21.2 µM | 8.03 µM | 11.4 µM | 5 | 4.21 µM
17 | CON=C(Cl)c1cc(/C(=C\CCCc2nnc(C)o2)c2cccc(C#N)c2)cc(C)c1OC [ADAM 21, 5-[(1Z)-1-(3-Cyanophenyl)-5-(5-methyl-1,3,4-oxadiazol-2-yl)pent-1-en-1-yl]-N,2-dimethoxy-3-methylbenzenecarboximidoyl Chloride] | 2 | 5.8 µM | 22.3 µM | 33.3 µM | 13.2 µM | 6 | 2.66 µM
18 | CON=C(Cl)c1cc(/C(=C\CCCc2nc(C)no2)c2cccc(C#N)c2)cc(C)c1OC [ADAM 22, 5-[(1Z)-1-(3-Cyanophenyl)-5-(3-methyl-1,2,4-oxadiazol-5-yl)pent-1-en-1-yl]-N,2-dimethoxy-3-methylbenzenecarboximidoyl Chloride] | 7 | 3.5 µM | 110 µM | > 100 µM | 25.5 µM | 41 | 2.69 µM
